28 compounds from patent US10988459B2 (priority 2015, dated 2021) can be followed below.

Structures are written as SMILES. pKi: −log10 of the molar value. Read-outs that look alike come from different tables or passages of the source.

The test concerns the target human RIP1 kinase domain (2-375) (Homo sapiens (Human), UniProt Q13546). The test is described as follows: biochemical. The format is biochemical. The settings on record: 50 uM ATP. A digest of the protocol: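 Ki^app comes from Morrison tight-binding fits of fractional activity versus compound concentration. Activity was read as ADP production, via tracer displacement lowering fluorescence polarization (633 nm laser). Conditions: 2 h, 50 nM insect-cell-expressed enzyme, 50 uM ATP, 30 mM MgCl2, 1 mM DTT, 0.5% DMSO, pH 7.5 Hepes.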

Setting [1] is: tight-binding apparent inhibition constant, human RIP1 kinase domain (2-375) 50 nM, 2 hours, read-out: Ki.
Setting [2] is: human RIP1 kinase domain (2-375), Transcreener ADP assay, 2 hours incubation, read-out: RIP1 Ki.
The mark [3] stands for this setting: human RIP1 kinase domain (2-375), 2 hours incubation, Transcreener ADP assay, read-out: RIP1 Ki.
Setting [4] is: Table 5, apparent Ki (Morrison tight-binding fit), 50 nM RIP1 kinase domain, 2 hours incubation, read-out: Ki.

Chain of human RIP1 kinase domain (2-375) (Q13546 2-375): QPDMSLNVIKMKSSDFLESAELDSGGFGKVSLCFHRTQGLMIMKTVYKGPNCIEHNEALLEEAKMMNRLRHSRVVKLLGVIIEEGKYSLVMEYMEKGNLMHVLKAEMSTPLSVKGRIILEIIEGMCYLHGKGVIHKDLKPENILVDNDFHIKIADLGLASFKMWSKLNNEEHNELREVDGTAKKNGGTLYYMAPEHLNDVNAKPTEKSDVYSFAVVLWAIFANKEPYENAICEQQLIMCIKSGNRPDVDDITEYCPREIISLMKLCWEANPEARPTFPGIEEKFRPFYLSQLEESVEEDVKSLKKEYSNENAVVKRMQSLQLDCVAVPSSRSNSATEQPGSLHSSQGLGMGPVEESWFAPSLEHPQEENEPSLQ

In the case of `O=C(N[C@H]1COc2cc(F)cc(F)c2NC1=O)c1nc2cccc(C(F)(F)F)n2n1` [Example 417, (S)—N-(6,8-difluoro-4-oxo-2,3,4,5-tetrahydrobenzo[b][1,4]oxazepin-3-yl)-5-(trifluoromethyl)-[1,2,4]triazolo[1,5-a]pyridine-2-carboxamide], under setting [1], the pKi is 7.44.

As to `CN1C(=O)C(NC(=O)c2ncn(Cc3ccc(Cl)cc3)n2)CCn2nc(C3CC3)cc21` (stereo not shown) [Example 288, 1-(4-chlorobenzyl)-N-(2-cyclopropyl-4-methyl-5-oxo-5,6,7,8-tetrahydro-4H-pyrazolo[1,5-a][1,3]diazepin-6-yl)-1H-1,2,4-triazole-3-carboxamide], the pKi under setting [2] was 7.21.

In the case of `CN1C(=O)[C@@H](NC(=O)c2cc3c(cn2)CO[C@]3(C)CC(F)(F)F)COc2ccccc21` [Example 161, (R)-1-methyl-N-((S)-5-methyl-4-oxo-2,3,4,5-tetrahydrobenzo[b][1,4]oxazepin-3-yl)-1-(2,2,2-trifluoroethyl)-1,3-dihydrofuro[3,4-c]pyridine-6-carboxamide], the pKi under setting [3] is 8.05. As to `CN1C(=O)[C@@H](NC(=O)c2ncc3ccc(C(F)(F)F)cn23)COc2ccccc21` [Example 35, N-[(3S)-5-methyl-4-oxo-2,3-dihydro-1,5-benzoxazepin-3-yl]-6-(trifluoromethyl)imidazo[1,5-a]pyridine-3-carboxamide], the pKi (Table 1, apparent Ki (Morrison tight-binding fit), 50 nM RIP1 kinase domain, 2 hours incubation, read-out: RIP1 Ki) was 8.06. In the case of `Cc1cc2n(n1)CC[C@H](NC(=O)c1ncn(Cc3ccc(Cl)cc3Cl)n1)C(=O)N2C` [Example 473, 1-[(2,4-dichlorophenyl)methyl]-N-[(6S)-2,4-dimethyl-5-oxo-7,8-dihydro-6H-pyrazolo[1,5-a][1,3]diazepin-6-yl]-1,2,4-triazole-3-carboxamide], the negative-log Ki (pKi) under setting [1] is 8.11. As for `Cc1cc2n(n1)CC[C@H](NC(=O)c1ncn3ccc(C(F)(F)F)cc13)C(=O)N2C` (stereo in doubt) [Example 337, N-(2,4-dimethyl-5-oxo-5,6,7,8-tetrahydro-4H-pyrazolo[1,5-a][1,3]diazepin-6-yl)-7-(trifluoromethyl)imidazo[1,5-a]pyridine-1-carboxamide], the pKi (Table 3, apparent Ki (Morrison tight-binding fit), 50 nM RIP1 kinase domain, 2 hours incubation, read-out: Ki) was 6.27.

On to `CN1C(=O)C(NC(=O)c2cn(Cc3ccccc3)nn2)CCn2cncc21` (stereo not shown) [Example 295, 1-benzyl-N-(1-methyl-2-oxo-2,3,4,5-tetrahydro-1H-imidazo[1,5-a][1,3]diazepin-3-yl)-1H-1,2,3-triazole-4-carboxamide], for which, under setting [2], the negative-log Ki (pKi) is 6.93. On to `Cc1cc2n(n1)CC[C@H](NC(=O)c1cc3c(-c4ccccc4)cccn3n1)C(=O)N2C` [Example 714, (S)—N-(2,4-dimethyl-5-oxo-5,6,7,8-tetrahydro-4H-pyrazolo[1,5-a][1,3]diazepin-6-yl)-4-phenylpyrazolo[1,5-a]pyridine-2-carboxamide], for which the pKi under setting [4] was 7.89. As for `Cc1cc2n(n1)CC[C@H](NC(=O)c1ncn([C@H](C)c3ccccc3)n1)C(=O)N2C` [Example 158, N-((S)-2,4-dimethyl-5-oxo-5,6,7,8-tetrahydro-4H-pyrazolo[1,5-a][1,3]diazepin-6-yl)-1-((R)-1-phenylethyl)-1H-1,2,4-triazole-3-carboxamide], under setting [3], the pKi is 6.01. `CN1C(=O)[C@@H](NC(=O)c2ncn(Cc3cccc(F)c3F)n2)CCn2nc([C@H]3CC3(F)F)cc21` [Example 311, 1-(2,3-difluorobenzyl)-N—((S)-2-((R)-2,2-difluorocyclopropyl)-4-methyl-5-oxo-5,6,7,8-tetrahydro-4H-pyrazolo[1,5-a][1,3]diazepin-6-yl)-1H-1,2,4-triazole-3-carboxamide]: under setting [2], the pKi was 5.28.

With `CN1C(=O)[C@@H](NC(=O)c2ncn(Cc3c(F)cccc3F)n2)CCn2nccc21` [Example 343, 1-[(2,6-difluorophenyl)methyl]-N-[(6S)-4-methyl-5-oxo-7,8-dihydro-6H-pyrazolo[1,5-a][1,3]diazepin-6-yl]-1,2,4-triazole-3-carboxamide], under setting [1], the pKi was 8.01. Take `CC[C@]1(C)OCc2cnc(C(=O)N[C@H]3COc4ccccc4N(C)C3=O)cc21` (single isomer, unassigned) [Example 764]: the pKi under setting [4] is 6.57.

With `CC(C)n1ncc2c1OC[C@H](NC(=O)c1ncn(Cc3ccccc3)n1)C(=O)N2` [Example 203, (S)-1-benzyl-N-(1-isopropyl-5-oxo-4,5,6,7-tetrahydro-1H-pyrazolo[3,4-b][1,4]oxazepin-6-yl)-1H-1,2,4-triazole-3-carboxamide], under setting [3], the pKi is 6.04. Turning to `CC(C)n1ncc2cnc(C(=O)N[C@H]3CCc4cc(F)cc(F)c4NC3=O)nc21` [Example 607, 1-isopropyl-N-[(3S)-7,9-difluoro-2-oxo-1,3,4,5-tetrahydro-1-benzazepin-3-yl]pyrazolo[3,4-d]pyrimidine-6-carboxamide], the pKi under setting [1] was 7.55. Still for that read-out and setting: with `Cc1cc2n(n1)CC[C@H](NC(=O)c1nc3n(n1)[C@H](c1ccccc1)CC3)C(=O)N2C` (single isomer, unassigned) [Example 610] the figure was 6.04. For `Cc1cc(F)c2c(c1)OC[C@H](NC(=O)c1nc3cccc(C(F)(F)F)n3n1)C(=O)N2` [Example 419, (S)—N-(6-fluoro-8-methyl-4-oxo-2,3,4,5-tetrahydrobenzo[b][1,4]oxazepin-3-yl)-5-(trifluoromethyl)-[1,2,4]triazolo[1,5-a]pyridine-2-carboxamide], the pKi under setting [1] is 8.03. For `O=C(N[C@H]1CCc2cc(F)cc(F)c2NC1=O)c1nc2n(n1)[C@H](C(F)(F)F)CC2` [Example 357, (5S)—N-[(3S)-7,9-difluoro-2-oxo-1,3,4,5-tetrahydro-1-benzazepin-3-yl]-5-(trifluoromethyl)-6,7-dihydro-5H-pyrrolo[1,2-b][1,2,4]triazole-2-carboxamide], under setting [1], the negative-log Ki (pKi) was 7.34.

Consider `CN1C(=O)[C@@H](NC(=O)c2ncc3c(n2)[C@](C)(C(F)(F)F)OC3)COc2ccccc21` [Example 745, (7R)-7-methyl-N-[(3S)-5-methyl-4-oxo-2,3-dihydro-1,5-benzoxazepin-3-yl]-7-(trifluoromethyl)-5H-furo[3,4-d]pyrimidine-2-carboxamide], for which the pKi under setting [4] is 7.92. For `CN1C(=O)[C@@H](NC(=O)c2ncn(C[C@H]3C[C@H](C(F)(F)F)C3)n2)CCn2nccc21` [Example 494], the pKi under setting [1] is 6.96.

For `Cc1cc2n(n1)CC[C@H](NC(=O)c1ncn(Cc3ncccc3C)n1)C(=O)N2C` [Example 644, 1-[(3-methyl-2-pyridyl)methyl]-N-(6S)-2,4-dimethyl-5-oxo-7,8-dihydro-6H-pyrazolo[1,5-a][1,3]diazepin-6-yl-1,2,4-triazole-3-carboxamide], the pKi under setting [1] was 6.51. Take `CN1C(=O)[C@@H](NC(=O)c2cc3c(cn2)cnn3CC(F)(F)F)COc2ccccc21` [Example 127, N-[(3S)-5-methyl-4-oxo-2,3-dihydro-1,5-benzoxazepin-3-yl]-1-(2,2,2 trifluoroethyl)pyrazolo[4,3-c]pyridine-6-carboxamide]: the negative logarithm of the Ki (pKi) under setting [3] was 6.63. With `CN1C(=O)[C@@H](NC(=O)c2nc3n(n2)C(C2CCOC2)CCC3)CCn2nccc21` (stereo partly drawn) [Example 390, N—((S)-4-methyl-5-oxo-5,6,7,8-tetrahydro-4H-pyrazolo[1,5-a][1,3]diazepin-6-yl)-5-(tetra hydrofuran-3-yl)-5,6,7,8-tetrahydro-[1,2,4]triazolo[1,5-a]pyridine-2-carboxamide], the pKi under setting [1] was 5.52. For `C[C@]1(C(F)(F)F)OCc2cnc(C(=O)N[C@H]3CCc4cc(F)cc(F)c4NC3=O)nc21` [Example 747, (7S)-7-methyl-N-[(3S)-7,9-difluoro-2-oxo-1,3,4,5-tetrahydro-1-benzazepin-3-yl]-7-(trifluoromethyl)-5H-furo[3,4-d]pyrimidine-2-carboxamide], the pKi under setting [4] is 7.38.

On to `CN1C(=O)[C@@H](NC(=O)c2ncn(Cc3ccccc3)n2)CCn2cncc21` [Example 297, (S)-1-benzyl-N-(1-methyl-2-oxo-2,3,4,5-tetrahydro-1H-imidazo[1,5-a][1,3]diazepin-3-yl)-1H-1,2,4-triazole-3-carboxamide], for which the pKi under setting [2] was 7.68. Turning to `CN1C(=O)C(NC(=O)c2ncn(Cc3ccccc3)n2)CCn2nc3ccccc3c21` (stereo not shown) [Example 110, 1-benzyl-N-(1-methyl-2-oxo-2,3,4,5-tetrahydro-1H-[1,3]diazepino[1,2-b]indazol-3-yl)-1H-1,2,4-triazole-3-carboxamide], the pKi under setting [3] is 7.19. For `CN1C(=O)C(NC(=O)c2ncn(CC3CC(F)(F)C3)n2)CCn2nc(C3CC3)cc21` (stereo not shown) [Example 269, N-(2-cyclopropyl-4-methyl-5-oxo-5,6,7,8-tetrahydro-4H-pyrazolo[1,5-a][1,3]diazepin-6-yl)-1-((3,3-difluorocyclobutyl)methyl)-1H-1,2,4-triazole-3-carboxamide], the pKi under setting [2] is 6.09. Take `CN1C(=O)[C@@H](NC(=O)c2ncn(Cc3ncccc3Cl)n2)CCn2nccc21` (racemic) [Example 656, 1-[(3-chloro-2-pyridyl)methyl]-N-[rac-(6S)-4-methyl-5-oxo-7,8-dihydro-6H-pyrazolo[1,5-a][1,3]diazepin-6-yl]-1,2,4-triazole-3-carboxamide]: the pKi under setting [1] is 7.21. For the compound `CN1C(=O)[C@@H](NC(=O)c2ncn(Cc3cc(F)cc(F)c3)n2)CCn2nc(C3CC3)cc21` [Example 303, (S)—N-(2-cyclopropyl-4-methyl-5-oxo-5,6,7,8-tetrahydro-4H-pyrazolo[1,5-a][1,3]diazepin-6-yl)-1-(3,5-difluorobenzyl)-1H-1,2,4-triazole-3-carboxamide], the pKi under setting [2] was 7.73.
